{"source": "patent US8580318B2", "about": "“Natural water soluble extracts for the inhibition of alpha-1-adrenergic receptors” (Naturamed Ltd., priority 2007, dated 2013)", "origin": "cited, not measured here", "test_system": "serum prostate specific antigen (PSA)", "conditions": "patients with BPH"}
{"smiles": "CC(C)(C)NC(=O)[C@H]1CC[C@H]2[C@@H]3CC[C@H]4NC(=O)C=C[C@]4(C)[C@H]3CC[C@]12C", "note": "[finasteride, Finasteride]", "values": [{"measurement": "decrease in serum prostate specific antigen (PSA) levels", "value": "approximately 50%"}]}
